From ChEMBL document CHEMBL3885861, “Open TG-GATES”

Organism: Rattus norvegicus
Assay: Open TG-GATES - Regimen: Single
Assay type: toxicity, organism-based, Sprague-Dawley
Design: regimen Single, gender Male, age 6 weeks
Settings: in vivo, po, 1000 mg/kg, route gavage, dose level High; for APTT / Bas / Eos / Fbg / Hb / Ht / Lym / MCH / MCHC / MCV / Mono / Neu / PT / Plat / RBC / Ret / WBC: tissue Blood; for KIDNEY_L / KIDNEY_R / KIDNEY_TOTAL: tissue Kidney; for LIVER: tissue Liver; for A/G / ALP / ALT / AST / BUN / CRE / Ca / Cl / DBIL / GLC / IP / K / LDH / Na / PL / RALB / TBIL / TC / TG / TP / gamma-GTP: tissue Plasma

O=C(O)COc1nn(Cc2ccccc2)c2ccccc12 [BENDAZAC]
TERMINAL_BW (3 h): 213.4 g | APTT (3 h): 16.9 s | Bas (3 h): 0% | Eos (3 h): 1.2% | Fbg (3 h): 207.6 mg/dL | Hb (3 h): 13.6 g/dL | Ht (3 h): 40.3% | Lym (3 h): 74% | MCH (3 h): 21.9 pg | MCHC (3 h): 33.7% | MCV (3 h): 65.1 fL | Mono (3 h): 7.8% | Neu (3 h): 16.8% | PT (3 h): 11.3 s | Plat (3 h): 130.3 x10_4/uL | RBC (3 h): 620.2 x10_4/ul | Ret (3 h): 12% | WBC (3 h): 92.8 x10_2/uL | KIDNEY_L (3 h): 1 g | KIDNEY_R (3 h): 1 g | KIDNEY_TOTAL (3 h): 2 g | LIVER (3 h): 9.7 g | A/G (3 h): 2.2 | ALP (3 h): 1482.6 IU/L | ALT (3 h): 35.2 IU/L | AST (3 h): 67.8 IU/L | BUN (3 h): 12.2 mg/dL | CRE (3 h): 0.5 mg/dL | Ca (3 h): 10.6 mg/dL | Cl (3 h): 100.2 meq/L | DBIL (3 h): 0.04 mg/dL | GLC (3 h): 195.2 mg/dL | IP (3 h): 10.1 mg/dL | K (3 h): 4.8 meq/L | LDH (3 h): 99.8 IU/L | Na (3 h): 140 meq/L | PL (3 h): 133.6 mg/dL | RALB (3 h): 3.7 g/dL | TBIL (3 h): 1.4 mg/dL | TC (3 h): 73.2 mg/dL | TG (3 h): 42.2 mg/dL | TP (3 h): 5.4 g/dL | gamma-GTP (3 h): 1.2 IU/L | TERMINAL_BW (6 h): 205.5 g | APTT (6 h): 17.1 s | Bas (6 h): 0% | Eos (6 h): 1.2% | Fbg (6 h): 215.4 mg/dL | Hb (6 h): 14 g/dL | Ht (6 h): 41.8% | Lym (6 h): 68.2% | MCH (6 h): 22.1 pg | MCHC (6 h): 33.5% | MCV (6 h): 66 fL | Mono (6 h): 8% | Neu (6 h): 23.4% | PT (6 h): 11.8 s | Plat (6 h): 126.4 x10_4/uL | RBC (6 h): 633.4 x10_4/ul | Ret (6 h): 14.3% | WBC (6 h): 86.8 x10_2/uL | KIDNEY_L (6 h): 0.9 g | KIDNEY_R (6 h): 0.9 g | KIDNEY_TOTAL (6 h): 1.9 g | LIVER (6 h): 8.6 g | A/G (6 h): 2.1 | ALP (6 h): 2888.2 IU/L | ALT (6 h): 33.8 IU/L | AST (6 h): 67.4 IU/L | BUN (6 h): 10.6 mg/dL | CRE (6 h): 0.6 mg/dL | Ca (6 h): 10.5 mg/dL | Cl (6 h): 100 meq/L | DBIL (6 h): 0.046 mg/dL | GLC (6 h): 189.8 mg/dL | IP (6 h): 10.8 mg/dL | K (6 h): 4.5 meq/L | LDH (6 h): 114.6 IU/L | Na (6 h): 141 meq/L | PL (6 h): 138 mg/dL | RALB (6 h): 3.7 g/dL | TBIL (6 h): 1.5 mg/dL | TC (6 h): 83 mg/dL | TG (6 h): 21.2 mg/dL | TP (6 h): 5.4 g/dL | gamma-GTP (6 h): 0.8 IU/L | TERMINAL_BW (9 h): 202.5 g | APTT (9 h): 17.9 s | Bas (9 h): 0% | Eos (9 h): 1% | Fbg (9 h): 213.4 mg/dL | Hb (9 h): 13.6 g/dL | Ht (9 h): 40.7% | Lym (9 h): 79.6% | MCH (9 h): 21.7 pg | MCHC (9 h): 33.5% | MCV (9 h): 64.9 fL | Mono (9 h): 7.4% | Neu (9 h): 12.2% | PT (9 h): 11.8 s | Plat (9 h): 120.8 x10_4/uL | RBC (9 h): 627.8 x10_4/ul | Ret (9 h): 8% | WBC (9 h): 71.1 x10_2/uL | KIDNEY_L (9 h): 0.9 g | KIDNEY_R (9 h): 1 g | KIDNEY_TOTAL (9 h): 1.9 g | LIVER (9 h): 7.9 g | A/G (9 h): 2.1 | ALP (9 h): 5387.2 IU/L | ALT (9 h): 28 IU/L | AST (9 h): 63.6 IU/L | BUN (9 h): 11.2 mg/dL | CRE (9 h): 0.6 mg/dL | Ca (9 h): 10.3 mg/dL | Cl (9 h): 100.8 meq/L | DBIL (9 h): 0.032 mg/dL | GLC (9 h): 177.6 mg/dL | IP (9 h): 10 mg/dL | K (9 h): 4.6 meq/L | LDH (9 h): 92.8 IU/L | Na (9 h): 141.6 meq/L | PL (9 h): 129.8 mg/dL | RALB (9 h): 3.7 g/dL | TBIL (9 h): 1.5 mg/dL | TC (9 h): 75.8 mg/dL | TG (9 h): 30.2 mg/dL | TP (9 h): 5.5 g/dL | gamma-GTP (9 h): 1 IU/L | TERMINAL_BW (24 h): 203.6 g | APTT (24 h): 16.8 s | Bas (24 h): 0% | Eos (24 h): 1.6% | Fbg (24 h): 193 mg/dL | Hb (24 h): 14 g/dL | Ht (24 h): 41.8% | Lym (24 h): 77% | MCH (24 h): 21.6 pg | MCHC (24 h): 33.4% | MCV (24 h): 64.6 fL | Mono (24 h): 6.6% | Neu (24 h): 15.2% | PT (24 h): 13.1 s | Plat (24 h): 133.3 x10_4/uL | RBC (24 h): 647.6 x10_4/ul | Ret (24 h): 10.7% | WBC (24 h): 92.1 x10_2/uL | KIDNEY_L (24 h): 1 g | KIDNEY_R (24 h): 1 g | KIDNEY_TOTAL (24 h): 1.9 g | LIVER (24 h): 9 g | A/G (24 h): 2.4 | ALP (24 h): 6419.2 IU/L | ALT (24 h): 31.2 IU/L | AST (24 h): 58 IU/L | BUN (24 h): 12.6 mg/dL | CRE (24 h): 0.7 mg/dL | Ca (24 h): 10.7 mg/dL | Cl (24 h): 99 meq/L | DBIL (24 h): 0.056 mg/dL | GLC (24 h): 180.6 mg/dL | IP (24 h): 8.6 mg/dL | K (24 h): 4.3 meq/L | LDH (24 h): 104.4 IU/L | Na (24 h): 140.2 meq/L | PL (24 h): 110.8 mg/dL | RALB (24 h): 3.9 g/dL | TBIL (24 h): 1.9 mg/dL | TC (24 h): 63.8 mg/dL | TG (24 h): 31.6 mg/dL | TP (24 h): 5.5 g/dL | gamma-GTP (24 h): 0.8 IU/L
